We go through 4 compounds from patent publication US20030050305A1, “Thromboxane inhibitors, compositions and methods of use” (priority 2000, published 2003).

Test [1] deals with Human corpus cavernosum tissue. The test can be described thus: Contractile response of human corpus cavernosum tissue from diabetic and non-diabetic patients to U 46619. Conditions: tissue from diabetic vs non-diabetic patients; P<0.01. How it is done: (§1) Human corpus cavernosum specimens were obtained from impotent men at the time of penile prosthesis insertion. Tissues were maintained at 4-6° C. in M-400 solution, pH 7.4 (composition per 100 ml: mannitol, 4.19 g; KH2PO4, 0.205 g; K2HPO4.3H2O, 0.97 g; KCl, 0.112 g; NaHCO3, 0.084 g) until used. Corpus cavernosum tissues were typically used between 2 and 16 hours from extraction.
(§2) Measurement of the relaxation of corpus cavemosal tissue was carried out as follows. Corpus cavernosal tissue strips (3×3×7 mm) were immersed in a 8 ml organ chamber containing physiological salt solution, maintained at 37° C. and aerated with 5% CO2/95% air, pH 7.4. The tissues were then contracted with phenylephrine (1 μM) and the relaxation response was evaluated after the cumulative addition of the compound to the organ chamber.
(§3) In experiments where the effect of the thromboxane A2 receptor antagonist, SQ 29548 , was measured, […] was added 20 minutes before the addition of phenylephrine. In experiments where the effect of the thromboxane A2 agonist, U 46619 was measured, U 46619 was added after the phenylephrine-induced contractions stabilized, and then prostaglandin PGE1 was added 10 minutes later, if required.
The tissues were prepared according to Example 1. […]

In test [2] the test system is Human corpus cavernosum tissue. Description: Relaxation of human corpus cavernosum tissue strips contracted with phenylephrine (organ chamber). Conditions: for Relative potency in relaxing human corpus cavernosum tissue (FIG. 1B): after treatment with 0.02 μM SQ 29548; for Relaxation response in tissue from diabetic compared to non-diabetic patients (FIG. 4A, 4B): increasing concentrations of the prostaglandin alone. How it is done:
as §1, §2, §3
The data are expressed as mean i standard error of the percentage of total relaxation induced by 100 μM papaverine hydrochloride. Statistical analysis were conducted using a two-factor ANOVA statistical analysis using StatView software for Apple computers.

Test [3] deals with Human corpus cavernosum resistance arteries (helicine arteries). The test can be described thus: Relaxation of human corpus cavernosum resistance arteries contracted with norepinephrine (myograph). Conditions: SQ 29548 0.02 μM; increasing concentrations of acetylcholine; contracted with 1 μM norepinephrine; P<0.01. How it is done:
Human corpus cavernosum tissues were prepared according to Example 1. Penile small arteries, helicine arteries (lumen diameter 150-400 μ), which are the terminal branches of deep penile arteries, were dissected by carefully removing the adhering trabecular tissue. Arterial ring segments (2 mm long) were subsequently mounted on two 40 μm wires on microvascular double Halpern-Mulvany myographs (J. P. Trading, Aarhus, Denmark) for isometric tension recordings.
Measurement of the relaxation of corpus cavernosal resistant arteries was carried out as follows. […]
The segments were then exposed to 125 mM K^+ (physiological salt solution potassium salt form, by the equimolar substitution of […] in physiological salt solution) and the contraction response was measured. The arteries were contracted with 1 μM norepinephrine and relaxation responses were evaluated by cumulative additions of the acetylcholine (1 nM to 3 μ) to the organ chamber. The segments were washed with fress physiological salt solution, treated with the thromboxane inhibitor SQ 29548 (0.02 μM) and the response to acetylcholine measured again.

Where [4] appears, read: contracted with 1 μM phenylephrine.

Take `CCCCC[C@H](O)/C=C/[C@@H]1[C@@H](C/C=C\CCCC(=O)O)[C@H]2CO[C@@H]1C2` [U 46619]: the “Contraction response induced by increasing concentrations of the thromboxane agonist (FIG. 6)” value in test [1] is reported as “significant contraction of the tissue obtained from diabetic patients”. In addition, in test [2] (U 46619 0.003 μM, increasing concentrations of prostaglandin, P<0.01), the “Effect of the thromboxane A2 receptor agonist on the relaxation induced by PGE1 (FIG. 3)” value is recorded as “significant contraction of the tissue”.
As for `CCCCC[C@H](O)CC[C@H]1[C@H](O)CC(=O)[C@@H]1CCCCCCC(=O)O` [PGE0], in test [2] (setting [4]), the “Relative potency in relaxing human corpus cavernosum tissue (FIG. 1B)” value was “equipotent” and the “Relaxation response in tissue from diabetic compared to non-diabetic patients (FIG. 4A, 4B)” value is “significant reduction in the relaxation of the tissue from diabetic patients”. Moreover, the “Response of the tissue to increasing concentrations of the prostaglandin alone (FIG. 1A)” value in test [2] (higher concentrations of PGE0, absence of SQ 29548, contracted with 1 μM phenylephrine) was “significant contraction of the tissue”. Also, the “Relaxation response in tissue from hypertensive compared to non-hypertensive patients (FIG. 7)” value in test [2] (increasing concentrations of PGE0, contracted with 1 μM phenylephrine, P<0.01) is on record as “significant reduction in the relaxation of the tissue from hypertensive patients”.
As for `CCCCC[C@H](O)/C=C/[C@H]1[C@H](O)CC(=O)[C@@H]1CCCCCCC(=O)O` [PGE1, alprostadil], in test [2] (setting [4]), the “Relative potency in relaxing human corpus cavernosum tissue (FIG. 1B)” value is recorded as “equipotent” and the “Relaxation response in tissue from diabetic compared to non-diabetic patients (FIG. 4A, 4B)” value is given as “no difference in the relaxation response”.
Consider `O=C(O)CCC/C=C\C[C@@H]1[C@H](CNNC(=O)Nc2ccccc2)[C@H]2CC[C@@H]1O2` [SQ 29548], for which the “Effect of the thromboxane A2 receptor antagonist on the relaxation induced by PGE0 (FIG. 2)” value in test [2] (SQ 29548 0.02 μM, added 20 minutes before phenylephrine, increasing concentrations of PGE0, P<0.01) is given as “significant relaxation of the tissue”. In test [2] (addition of 0.02 μM SQ 29548, diabetic vs non-diabetic tissue), the “Effect on the reduced relaxation to PGE0 of tissue from diabetic patients (FIG. 5)” value was “This reduction in the relaxation of the tissue was eliminated”. Also, the “Effect of the thromboxane A2 receptor antagonist on the relaxation induced by acetylcholine (FIG. 8)” value in test [3] is “significant relaxation of the tissue”.
